From ChEMBL document CHEMBL1158035, “Actinomycins with altered threonine units in the beta-peptidolactone” (2006)
Where “and” joins values, the source holds several entries; their conditions need not be identical. Equal entries are not always repeated. Numbered stars: 1 amine (or outer) side, 2 acyl side, 3 side chain; on linkers, the order of the positions; unused ones are H or OH. Bridge positions count the residues as written; N and C are the ends. Square brackets hold non-standard residues; d marks the D form. Peptide text beside a SMILES is read from it. I, II: the chains in the order shown. Actinocin(1to9) = Cc1c2oc3c(C)ccc(C(=O)[*:2])c3nc-2c(C(=O)[*:1])c(N)c1=O; NMeV = CN[C@H](C(=O)O)C(C)C; Sar = CNCC(=O)O

How the values were obtained:
[1] = Cytotoxicity against human HM02 cells; assay type: functional
[2] = (§1) Cytotoxicity against human Hep G2 cells; assay type: functional, HepG2
[3] = as §1; assay type: functional; settings: HepG2
Escherichia coli = assay: Antimicrobial activity against Escherichia coli at 50 ug after 24 hrs by disk diffusion method; assay type: functional; settings: read-out: IZ
Staphylococcus aureus = assay: Antimicrobial activity against Staphylococcus aureus at 50 ug after 24 hrs by disk diffusion method; assay type: functional; settings: read-out: IZ
Bacillus subtilis = assay: Antimicrobial activity against Bacillus subtilis at 50 ug after 24 hrs by disk diffusion method; assay type: functional; settings: read-out: IZ

SMILES | GI50 ([1]; Homo sapiens, HM02) [µM] | TGI ([1]; Homo sapiens, HM02) [µM] | GI50 ([2]; Homo sapiens, HepG2) [µM] | TGI ([2]; Homo sapiens, HepG2) [µM] | GI50 [3] [µM] | TGI [3] [µM] | zone of inhibition at 50 µg/disc (Escherichia coli) [mm] | zone of inhibition at 50 µg/disc (Staphylococcus aureus) [mm] | zone of inhibition at 50 µg/disc (Bacillus subtilis) [mm] | TGI [1] [µM] | TGI [2]
Nc1cc2nc3ccccc3oc-2cc1=O | 4.45 | 10 | 6.6 | 26 | 0.61 | 2 | – | – | – | – | –
Cc1c2oc3c(C)ccc(C(=O)N[C@@H]4C(=O)N[C@H](C(C)C)C(=O)N5[C@H](C(=O)N(C)CC(=O)N(C)[C@@H](C(C)C)C(=O)O[C@@H]4C)[C@@H](O)C[C@@H]5C)c3nc-2c(C(=O)N[C@@H]2C(=O)N[C@H](C(C)C)C(=O)N3CCC[C@H]3C(=O)N(C)CC(=O)N(C)[C@@H](C)C(=O)O[C@@H]2CCl)c(N)c1=O [ACTINOMYCIN G2] | 0.0013 | 0.0043 | 0.0029 | 0.018 | 0.0039 | 0.012 | 15 | 27 | 45 | – | –
Cc1c2oc3c(C)ccc(C(=O)N[C@@H]4C(=O)N[C@H](C(C)C)C(=O)N5[C@H](C(=O)N(C)CC(=O)N(C)[C@@H](C(C)C)C(=O)O[C@@H]4C)[C@@H](O)C[C@@H]5C)c3nc-2c(C(=O)N[C@@H]2C(=O)N[C@H](C(C)C)C(=O)N3CCC[C@H]3C(=O)N(C)CC(=O)N(C)[C@@H](C)C(=O)O[C@@H]2CO)c(N)c1=O [ACTINOMYCIN G3] | 0.13 | 0.55 | 1.1 | > 7.9 | 0.46 | 1.6 | 0 | 21 | 33 | – | –
Cc1c2oc3c(C)ccc(C(=O)N[C@@H]4C(=O)N[C@H](C(C)C)C(=O)N5[C@H](C(=O)N(C)CC(=O)N(C)[C@@H](C(C)C)C(=O)O[C@@H]4C)[C@@H](O)C[C@@H]5C)c3nc-2c(C(=O)N[C@@H]2C(=O)N[C@H](C(C)C)C(=O)N3CCC[C@H]3C(=O)N(C)CC(=O)N(C)[C@@H](C)C(=O)O[C@@H]2C)c(N)c1=O [ACTINOMYCIN G4] | 0.065 | 0.52 | 0.64 | 1.4 | 0.4 | 1.5 | – | – | – | – | –
Cc1c2oc3c(C)ccc(C(=O)N[C@@H]4C(=O)N[C@H](C(C)C)C(=O)N5[C@H](C(=O)N(C)CC(=O)N(C)[C@@H](C(C)C)C(=O)O[C@@H]4C)[C@@H](O)C[C@@H]5C)c3nc-2c2c(c1=O)OC[C@H]1OC(=O)[C@H](C)N(C)C(=O)CN(C)C(=O)[C@@H]3CCCN3C(=O)[C@@H](C(C)C)NC(=O)[C@H]1NC2=O [ACTINOMYCIN G5] | 2.1 | 4.4 | 2.7 | 7.8 | 1.4 | 2.5 | 0 | 10 | 20 | – | –
Cc1c2oc3c(C)ccc(C(=O)N[C@@H]4C(=O)N[C@H](C(C)C)C(=O)N5[C@H](C(=O)N(C)CC(=O)N(C)[C@@H](C(C)C)C(=O)O[C@@H]4C)[C@@H](O)C[C@@H]5C)c3nc-2c(C(=O)OC[C@H](O)[C@@H]2NC(=O)[C@H](C)N(C)C(=O)CN(C)C(=O)[C@@H]3CCCN3C(=O)[C@@H](C(C)C)NC2=O)c(N)c1=O [ACTINOMYCIN G6] | – | 1 | – | – | 1.4 | 4.6 | 0 | 0 | 0 | 2 | 1.6 µM and > 7.9 µM
Cc1c2oc3c(C)ccc(C(=O)N[C@@H]4C(=O)N[C@H](C(C)C)C(=O)N5CCC[C@H]5C(=O)N(C)CC(=O)N(C)[C@@H](C(C)C)C(=O)O[C@@H]4C)c3nc-2c(C(=O)N[C@@H]2C(=O)N[C@H](C(C)C)C(=O)N3CCC[C@H]3C(=O)N(C)CC(=O)N(C)[C@@H](C(C)C)C(=O)O[C@@H]2C)c(N)c1=O [DACTINOMYCIN] (I: T[dV]P[Sar][NMeV] / II: T[dV]P[Sar][NMeV]; ester I:1-I:C, II:1-II:C; linker I:N-II:N via Actinocin(1to9)) | 0.0016 | 0.0064 | 0.0012 | 0.052 | 0.0019 | 0.0088 | 20 | 30 | 55 | – | –
